Results on three molecules are retold here after patent US6825192B1, “Heterodiazinone derivatives” (Eisai Co., Ltd., priority 1999, dated 2004).

pIC50: −log10 of the molar value. Structures can show the parent of a compound that is named as a salt.

The test system of one test is AMPA receptor. Briefly: Inhibitory action on AMPA-inducing inflow of calcium into nerve cells (Fura2-AM). The format is cell-based. Particulars: rat cerebral cortex nerve cells on astrocytes, 1 μM MK-801, stimulated by 2 μM AMPA, fluorescence 340/380 nm. On the procedure: The cerebral cortex was excised from the brain of a rat on day 18 after birth and treated with trypsin and DNase, whereby the cells were dispersed. The cells were allowed to float on DMEM containing 10% serum, inoculated into a culture bottle, and their astrocytes were grown. The astrocytes were re-dispersed with trypsin and inoculated onto each well on a 96-well plate. After it was confirmed that the bottom of each well was completely covered with the astrocytes after culture for 1 week, cerebral cortex nerve cells dispersed in the same manner as above were inoculated thereon. After 24 hours, the medium was exchanged with fresh one, and after culture for further 1 week, the medium was exchanged with a medium containing 1 μM MK-801.
The inflow of calcium into the cells was measured using Fura2-AM that is a calcium-sensitive fluorescent pigment. By treating the cells with a Fura2-AM-containing medium for 1 hour, Fura2-AM was incorporated into the cells, and the medium was exchanged with a Tyrode solution containing 1 μM MK-801. After a test compound was added, the cells were stimulated by 2 μM AMPA. The change in the amount of calcium flowing into the cells was measured as a change in the fluorescence intensity at wavelengths of 340/380 nm. The effect of a test compound was evaluated where the reaction caused by AMPA added to the Tyrode solution free of the test compound was used as the control.

Another test relates to AMPA receptor channels. The experiment in a line: Inhibitory action on AMPA-inducing electric current in nerve cell membrane (patch clamp). Format: cell-based. The conditions noted are these: cultured rat cerebral cortex nerve cells, membrane potential -70 mV, 10 μM AMPA. On the procedure:
The action on AMPA receptor channels was examined by a patch clamp method.
The cerebral cortex was excised from the brain of a rat on day 18 after birth and treated with trypsin and DNase, whereby the cells were dispersed. The cells were allowed to float on DMEM containing 10% serum, inoculated into a culture bottle, and their astrocytes were grown. The astrocytes were re-dispersed with trypsin and inoculated onto each well on a 12-well plate.
After it was confirmed that the bottom of each well was completely covered with the astrocytes after culture for 1 week, a cover glass treated with poly-1-lysine was placed thereon, and cerebral cortex nerve cells dispersed in the same manner as above were further inoculated thereon. After 24 hours, the medium was exchanged with fresh one, and after culture for further 1 week, the medium was exchanged with a medium containing 1 μM MK-801.
The membrane potential of the cerebral cortex nerve cells cultured for 9 days or more was fixed at −70 mV by a patch clamp method, and after a test compound was added, 10 μM AMPA was applied as a stimulus to the cells. By using, as the control, electric current flowing via the membrane into the cells in the absence of the test compound, the action of the compound in Example 1 was examined.
For orientation: The patch-clamp technique gives a direct electrical read-out from membranes.

The subject of a further test is male ddy mice. Briefly: Inhibitory action on AMPA-inducing spasm. Format: in vivo. Particulars: intravenous, 5 minutes before 1.5 nmol AMPA into the ventricle. The method, then: A test compound or its solvent only was intravenously injected into 4-week-old male ddy mice, and 5 minutes later, 1.5 nmol AMPA was administered into the ventricle thereby inducing spasm. The action of the test chemical was judged by the presence or absence of spasm, and its dose causing 80% or more inhibition was regarded as an effective dose.

The test system of a further test is male SD rat. The experiment in a line: Reduction of infarct in a model with occlusion of midbrain/cerebrum arteries. The format is in vivo. The conditions noted are these: from 30 min after occlusion, 6 h, vs solvent only. The method, then: The cervical region of a 8-week-old male SD rat was cut across the midline, and a right carotid artery was removed. An operation nylon thread (standard 4-0) was inserted into an external carotid artery, and blood stream in the midbrain/cerebrum arteries in the skull was occluded by the nylon thread, whereby a model with occlusion of midbrain/cerebrum arteries was prepared. Thirty minutes after the midbrain/cerebrum arteries were occluded, a test compound or its solvent only was once administered intravenously into the rat, and thereafter, it was continuously administered intravenously at a constant injection rate. The body temperature was controlled at 37.5 to 38.0° from the initiation of administration to the termination of administration. Six hours after the initiation of administration, the brain was excised from the rat and immediately cut into brain sections of 2 mm in thickness, which were then stained with 2% TTC solution. An image of these stained sections was incorporated into NIH image and the area of non-stained portions showing infarct loci was measured, and thereafter, the volume of the infarct loci was calculated.

In test [1] the test system is rat model with cerebral ischemia. Particulars: Le Peillet et al., Brain Research, 571, 115, 1992; cited from earlier work.
For test [2], the system named is experimental animal model with cerebral ischemia. The conditions noted are these: Sheardown et al., Science, 247, 571, 1990; cited from earlier work.

In general, pIC50 refers to −log10 of the IC50, conventionally taken in molar units. Regarding `O=C1COC(c2ccccn2)=NN1c1ccccc1` [Example 1, 2-(2-Pyridyl)-4-phenyl-4H-1,3,4-oxadiazine-5(6H)-one hydrochloride], the pIC50 was 4.93 with AMPA receptor and 4.91 in the test on AMPA receptor channels. Moreover, the “effective dose (dose causing 80% or more inhibition of spasm)” value with male ddy mice came out at 30 mg/kg. The entries for the “reduction of infarct loci in the cerebral cortex” value in the test with male SD rat (single i.v. 6.6 mg/kg then continuous i.v. 10 mg/kg/h) and with male SD rat (single i.v. 20 mg/kg then continuous i.v. 30 mg/kg/h) were 54% and 74%, respectively.

With `CC1=NN=C(c2ccc(N)cc2)c2cc3c(cc2C1)OCO3` [GYKI 52466, 1-(amino-phenyl)-4-methyl-7,8-methylenedioxy-5H-2,3-benzoazepine hydrochloride, reference compound], the negative logarithm of the IC50 (pIC50) in the test with AMPA receptor is 5.04. Besides, the “nerve-protecting action in rat model with cerebral ischemia” value in test [1] was “exerts a nerve-protecting action”.

Turning to `NS(=O)(=O)c1cccc2c1c([N+](=O)[O-])cc1nc(O)c(O)nc12` [NBQX, 2,3-dihydroxy-6-nitro-7-sulfamoyl-benzo[f-]quinoxaline], the “effect in experimental animal model with cerebral ischemia” value in test [2] is “effective”.
